From patent US12559499B2, “Uses of compounds having anti-HSV-1 activity” (Arizona Board of Regents on Behalf of the University of …, priority 2019, dated 2026)
pIC50: −log10 of the molar value. Like-named read-outs stand apart in the source and are kept apart here.

Legend:
[1] = Cytotoxicity by MTT assay; type: cell-based, Human; settings: human, U2OS cells (osteosarcoma cell line), read-out: CC50 (concentration able to kill 50% of the cells)
Procedure: (§1) Quindoline-derived compounds were first screened for their anti-herpetic activity. […] Supernatants were collected at 24 hours post infection (h.p.i.) and the reduction of viral particles production was determined by plaque reduction assay (PRA) (see, Artusi S., et al., Antiviral Res. 2015; 118:123-31; Callegaro S., et al., Sci. Rep. 2017; 7: 2341). Antiviral activities were determined as the concentration of compounds able to perform 50% inhibition of HSV-1 production (IC50). Cytotoxicity effects were evaluated in parallel by MTT assay and reported as the concentration of compounds able to kill 50% of the cells (CC50). The selectivity index (SI) was calculated as the ratio of CC50 to IC50.

wild-type HSV-1 strain F = assay: Anti-HSV-1 plaque reduction assay (PRA) on supernatants of infected U2OS cells; type: cell-based; settings: for pIC50: MOI 1, supernatants at 24 h.p.i., plaque reduction assay, read-out: IC50 (concentration able to perform 50% inhibition of HSV-1 production)
Procedure: Quindoline-derived compounds were first screened for their anti-herpetic activity. Increasing concentrations of compounds (from 25 to 400 nM) were added to U2OS cells infected with wild-type HSV-1 strain F at a MOI of 1. Supernatants were collected at 24 hours post infection (h.p.i.) and the reduction of viral particles production was determined by plaque reduction assay (PRA) (see, Artusi S., et al., Antiviral Res. 2015; 118:123-31; Callegaro S., et al., Sci. Rep. 2017; 7: 2341). Antiviral activities were determined as the concentration of compounds able to perform 50% inhibition of HSV-1 production (IC50). Cytotoxicity effects were evaluated in parallel by MTT assay and reported as the concentration of compounds able to kill 50% of the cells (CC50). The selectivity index (SI) was calculated as the ratio of CC50 to IC50.

[2] = tested on: U2OS (Human osteosarcoma cell line); assay: Cytotoxicity by MTT assay; type: cell-based; settings: U2OS cells, read-out: CC50 (concentration able to kill 50% of the cells)
Procedure: as §1

[3] = tested on: HSV-1 gp054a G-quadruplex folding sequence; assay: Circular dichroism (CD) melting of G-quadruplex, gp054a; type: binding; settings: for Tm, first value: first of two printed Tm; for Tm, second value: second of two printed Tm
Procedure: (§2) Circular dichroism (CD) was conducted to evaluate the binding and stabilizing activity of GSA-0932 to HSV-1 G-quadruplex structures (G4s). Three sequences were considered: two sequences forming a four-stacked-G-quartet structure (un2 and gp054a) and one forming a three-G-quartet G4 (un3) (see, Artusi S., et al., Antiviral Res. 2015; 118:123-31). HSV-1 G4s were analyzed at a final concentration of 4 μM in the presence of the physiological K^+ concentration (100 mM) or in the presence of lower K^+ concentration (2.5 mM) in order to better appreciate the effect of the compound in the case of extremely stable G4 structures (e.g. un2 sequence). Oligonucleotides were also analyzed in the absence or presence of 4-folds excess of GSA-0932.

[4] = tested on: un3 G-quadruplex-folded oligonucleotide; assay: Competition ESI-MS binding, un3; parameters: species or system HSV-1; settings: competing G4s un3/hTel, oligonucleotides 4 μM, DNA:compound 1:1.5, overnight 4° C.
Procedure: (§3) Competition electrospray ionization mass spectrometry (ESI-MS) experiments were performed in order to check the binding selectivity of GSA-0932 toward different G-quadruplex forming sequences (see, Callegaro S., et al., Sci. Rep. 2017; 7: 2341; Yuan G., et al., Mass Spectrom. Rev. 2011, 30, 1121-114210.1002/mas.20315). The viral un3, un2 and gp054a G4s were analyzed against the selected competitor hTel, the G-quadruplex-forming sequence of the human telomeric repeat, the most abundant cellular G-quadruplex. The oligonucleotides were diluted to final concentration of 4 μM and incubated with the compound at ratio DNA:compound 1:1.5 overnight at 4° C. Samples were analyzed by a Xevo G2-XS QT of mass spectrometer (Waters, Manchester, UK). Binding affinities were calculated for each experiment using the peak intensity for each species measured by MassLynx V4.1.

[5] = tested on: un2 G-quadruplex-folded oligonucleotide; assay: Competition ESI-MS binding, un2; parameters: species or system HSV-1; settings: competing G4s un2/hTel, oligonucleotides 4 μM, DNA:compound 1:1.5, overnight 4° C.
Procedure: as §3

[6] = tested on: HSV-1 un2 G-quadruplex folding sequence; assay: Circular dichroism (CD) melting of G-quadruplex, un2; type: binding; settings: un2 4 μM + 16 μM GSA-0932, K+ 2.5 mM
Procedure: as §2

[7] = tested on: gp054a G-quadruplex-folded oligonucleotide; assay: Competition ESI-MS binding, gp054a; parameters: species or system HSV-1; settings: competing G4s gp054a/hTel, oligonucleotides 4 μM, DNA:compound 1:1.5, overnight 4° C.
Procedure: as §3

[8] = tested on: control DNA template unable to fold into G-quadruplex; assay: Taq polymerase stop assay, non-G4 control template; type: biochemical; settings: non-G4 ctrl template
Procedure: (§4) FIG. 3: Taq polymerase stop assay. A) Image of a typical Taq polymerase stop assay. The un2, un3, gp054a template were amplified by Taq polymerase in the absence (lanes 5-9-13) and in the presence of K^+, combined with increasing amounts (2-8 μM) of GSA-0932 (lanes 7-8, 11-12, 15-16) or same amount of DMSO as that in the ligand (lanes 6-10-14). Un3 was analyzed at 50 mM of K^+, while the other sequences were investigated at 0.5 mM of K^+. A template (non-G4 ctrl) unable to fold into G4 was also used as control (lanes 1-4). P stands for unreacted labeled primer, FL stands for full length product. G4-specific Taq polymerase stop sites are highlighted by vertical bars. Quantification of stop bands corresponding to G4 and of the full length amplification product (FL) is shown.
(§5) Un3 was analyzed at 50 mM of K^+, while the FIG. 3 other sequences were investigated at 0.5 mM of K^+ due to their higher stability.

[9] = tested on: hTel, the G-quadruplex-forming sequence of the human telomeric repeat; assay: Competition ESI-MS binding, hTel; settings: oligonucleotides 4 μM, DNA:compound 1:1.5, overnight 4° C.
Procedure: as §3

[10] = tested on: un2, un3 and gp054a G-quadruplex forming templates; assay: Taq polymerase stop assay, G-quadruplex templates; type: biochemical, HSV-1; settings: 2-8 μM compound; un3 at 50 mM K+, un2 and gp054a at 0.5 mM K+
Procedure: as §4
To confirm the increased stability of the viral G-quadruplexes in the presence of GSA-0932, a Taq polymerase stop assay was next set up (FIG. 3). Extended un2, un3 and gp054a forming sequences were used, containing additional flanking bases at the 3′-end: a primer annealing sequence and a 5-T linker region to separate the annealing sequence from the first G of the G-tract.
as §5

HSV-1 = assay: Time of addition (TOA) assay in HSV-1-infected U2OS cells; type: cell-based; settings: non-toxic concentration, added every 2 hours up to 10 h.p.i., supernatants at 30 h.p.i. titrated by PRA
Procedure: To assess the main and temporally last viral step targeted by the most promising compound, GSA-0932, a time of addition (TOA) assay was performed (see, FIG. 2) (see, Artusi S., et al., Antiviral Res. 2015; 118:123-31; Callegaro S., et al., Sci. Rep. 2017; 7: 2341; Daelemans D., et al., Nat. Protoc. 2011; 6(6):925-33). This experiment permits determination of how long the addition of a compound can be postponed before it loses its antiviral activity. Since the HSV-1 replication cycle proceeds in a well-established chronological order, it is possible to investigate the last viral process targeted by a compound comparing its action to that of a reference drug in the time frame of replication events. The well characterized anti-HSV drug Acyclovir (ACV) was considered as reference (see, Artusi S., et al., Antiviral Res. 2015; 118:123-31; Callegaro S., et al., Sci. Rep. 2017; 7: 2341). HSV-1-infected U2OS cells were treated with a non-toxic concentration of GSA-0932 at different times post-infection (corresponding to different viral cycle steps): every 2 hours up to 10 h.p.i. Supernatants were collected at 30 h.p.i. and then titrated by PRA.

[11] = tested on: HSV-1 un3 G-quadruplex folding sequence; assay: Circular dichroism (CD) melting of G-quadruplex, un3; type: binding
Procedure: as §2

[12] = Human alphaherpesvirus 1, HSV-1 strain F
[13] = gp054a 4 μM + 16 μM GSA-0932, K+ 2.5 mM
[14] = gp054a 4 μM + 16 μM GSA-0932, K+ 100 mM
[15] = un3 4 μM + 16 μM GSA-0932, K+ 2.5 mM
[16] = un3 4 μM + 16 μM GSA-0932, K+ 100 mM

Compound: c1ccc2c3c4c(nc2c1)c1ccccc1n4CCCN3CCCN1CCCCC1 [GSA-1202]
- CC50 [1]: 4320 nM
- SI (selectivity index, ratio of CC50 to IC50) (wild-type HSV-1 strain F): 21.31
- pIC50 (wild-type HSV-1 strain F; [12]): 6.69

Compound: c1ccc2c3c4c(nc2c1)c1ccccc1n4CCCN3CCCN1CCOCC1 [GSA-0825]
- CC50 [1]: 32700 nM
- SI (selectivity index, ratio of CC50 to IC50) (wild-type HSV-1 strain F): 91.64
- pIC50 (wild-type HSV-1 strain F; [12]): 6.45

Compound: Cc1c2ccncc2c(C)c2c1[nH]c1ccc(OCCN(C)C)cc12 [GQC-05, reference compound]
- CC50 [2]: 1650 nM
- pIC50 (wild-type HSV-1 strain F; HSV-1 strain F): 6.51

Compound: CN(C)CCCN1CCCn2c3ccccc3c3nc4ccccc4c1c32 [GSA-1504]
- CC50 [1]: 4600 nM
- SI (selectivity index, ratio of CC50 to IC50) (wild-type HSV-1 strain F): 20.42
- pIC50 (wild-type HSV-1 strain F; [12]): 6.65

Compound: CN(C)CCN1CCCn2c3ccccc3c3nc4ccccc4c1c32 [GSA-1502]
- CC50 [1]: 12900 nM
- SI (selectivity index, ratio of CC50 to IC50) (wild-type HSV-1 strain F): 68.70
- pIC50 (wild-type HSV-1 strain F; [12]): 6.73

Compound: OC1CCC(CCN2CCCn3c4ccccc4c4nc5ccccc5c2c43)CC1 (centres unmarked) [GSA-1512]
- CC50 [1]: 18100 nM
- SI (selectivity index, ratio of CC50 to IC50) (wild-type HSV-1 strain F): 70.78
- pIC50 (wild-type HSV-1 strain F; [12]): 6.59

Compound: Cl.c1ccc2c3c4c(nc2c1)c1ccccc1n4CCCN3CCCN1CCCCCC1 [GSA-0920]
- CC50 [1]: 3620 nM
- SI (selectivity index, ratio of CC50 to IC50) (wild-type HSV-1 strain F): <9.05
- pIC50 (wild-type HSV-1 strain F; [12]): < 6.40

Compound: CN1CCN(CCCN2CCCn3c4ccccc4c4nc5ccccc5c2c43)CC1 [GSA-0903]
- CC50 [1]: 6230 nM
- SI (selectivity index, ratio of CC50 to IC50) (wild-type HSV-1 strain F): <31.15
- pIC50 (wild-type HSV-1 strain F; [12]): < 6.70

Compound: OC1CCN(CCN2CCCn3c4ccccc4c4nc5ccccc5c2c43)CC1 [GSA-0932]
- ΔTm [3, 13]: 15.6 °C
- Tm, first value [3, 13]: 74.5 °C
- Tm, second value [3, 13]: > 90 °C
- Tm, first value [3, 14]: 74.7 °C
- ΔTm, first value ([3]; gp054a 4 μM + 16 μM GSA-0932, K+ 100 mM, first of two printed ΔTm): 17.4 °C
- Tm, second value [3, 14]: > 90 °C
- ΔTm, second value ([3]; gp054a 4 μM + 16 μM GSA-0932, K+ 100 mM, second of two printed ΔTm): > 7.5 °C
- Relative binding affinity, un3 [4]: 50.3 ± 1.2
- Relative binding affinity, un2 [5]: 38.9 ± 1.7
- CC50 [1]: 14900 nM
- Tm [6]: >90 °C
- ΔTm [6]: >7.5 °C
- Relative binding affinity, gp054a [7]: 57.3 ± 0.4
- effect on control DNA template [8]: no effect
- Relative binding affinity, Cell G4 (hTel) ([9]; competing G4s un2/hTel): 11.1 ± 0.4
- Relative binding affinity, Cell G4 (hTel) ([9]; competing G4s un3/hTel): 13.8 ± 0.2
- intensity of the G4 stop bands [10]: increased in a concentration dependent manner
- time of addition up to which infection was kept controlled (HSV-1): up to 6 h.p.i.
- Tm [11, 15]: 56.4 ± 1.2 °C
- ΔTm [11, 15]: 18.8 ± 0.8 °C
- Tm [11, 16]: 66.4 °C
- ΔTm [11, 16]: 1.4 °C
- SI (selectivity index, ratio of CC50 to IC50) (wild-type HSV-1 strain F): 112.9
- pIC50 (wild-type HSV-1 strain F; [12]): 6.88
